Assay results from US20210008175A1, “BACTERIOPHAGE LYSIN AND ANTIBIOTIC COMBINATIONS AGAINST GRAM POSITIVE BACTERIA” (priority 2012, published 2021).
Values after ≈ are worked out from the molar mass of the structure shown. Where two headings read alike, the source gives them in different places. Marks after values point to notes of the source that are not given here.

Assays:
Staphylococcus aureus = assay: MIC, broth microdilution (CLSI M07-A9); type: cell-based; details: for MIC90: with reducing agent
[1] = tested on: MRSA strain ATCC 700699 and MSSA strain ATCC 25923; assay: microbe, parasite or virus in culture; type: cell-based, Staphylococcus aureus; details: Staphylococcus aureus
MRSA S. aureus strains = assay: Dual agent MIC assay (PlySs2 and daptomycin together, broth microdilution); type: cell-based; details: for MIC combo: PlySs2 and daptomycin combined; for MIC: Staphylococcus aureus, MRSA
[2] = tested on: MRSA Staphylococcus aureus strain (MW2); assay: microbe, parasite or virus in culture; type: cell-based; details: for MIC: Staphylococcus aureus, MRSA
MRSA strain 269 (MW2) = assay: Combination MIC study in the presence of 15% surfactant (Survanta); type: cell-based, Staphylococcus aureus; details: PlySs2 plus daptomycin
S. aureus [3] = assay: Murine bacteremia model, survival; type: in vivo, BALB/c mice
[4] = tested on: MRSA strain MW2 and MSSA strain ATCC 29213; assay: MIC in the presence of surfactant (Survanta), broth microdilution; type: cell-based, Staphylococcus aureus
S. aureus [5] = assay: Cell envelope binding of BODIPY-fluorescein-labeled antibiotics; type: cell-based
Method: As a complement to the synergy studies, daptomycin and vancomycin cell envelope-binding was examined using BODIPY-fluorescein-labeled antibiotics in the presence and absence of sub-MIC levels of CF-301. […] Similarly, cell wall-labeling with vancomycin occurs within 5 minutes in the presence of CF-301 (⅛^th MIC) versus 30 minutes without CF-301 (FIG. 20B). For both antibiotics, the labeling was first observed at bacterial division planes.

[6] = tested on: Staphylococcus aureus (MRSA and MSSA strains); assay: Time kill assay, single agents at 1×MIC (CLSI); type: cell-based
[7] = high challenge (10^9 CFU MRSA MW2), dosing at 2 hours, daptomycin 50 mg/kg once daily, PlySs2 5.25 mg/kg (FIG. 27B)

For `CCCCCCCCCC(=O)N[C@@H](Cc1c[nH]c2ccccc12)C(=O)N[C@H](CC(N)=O)C(=O)N[C@@H](CC(=O)O)C(=O)N[C@@H]1C(=O)NCC(=O)N[C@@H](CCCN)C(=O)N[C@@H](CC(=O)O)C(=O)N[C@H](C)C(=O)N[C@@H](CC(=O)O)C(=O)NCC(=O)N[C@H](CO)C(=O)N[C@@H]([C@H](C)CC(=O)O)C(=O)N[C@@H](CC(=O)c2ccccc2N)C(=O)O[C@@H]1C` [Daptomycin], the MIC90 (Staphylococcus aureus; DRSA (n = 8)) was 16, the MIC90 (Staphylococcus aureus; LRSA (n = 5)) was 1 and the MIC90 (Staphylococcus aureus; MRSA (n = 45)) was 1. For the same molecule, the MIC90 (Staphylococcus aureus; MSSA (n-28)) was 1, the MIC90 (Staphylococcus aureus; Staphylococcus aureus, DRSA (n = 8), read-out: MIC90) was 9.9 µM (≈ 16 µg/mL) and the MIC90 (Staphylococcus aureus; Staphylococcus aureus, LRSA (n = 5), read-out: MIC90) was 0.6 µM (≈ 0.972 µg/mL). It also gave an MIC90 (Staphylococcus aureus; Staphylococcus aureus, MRSA, MRSA (n = 45), read-out: MIC90) of 0.6 µM (≈ 0.972 µg/mL), an MIC90 (Staphylococcus aureus; Staphylococcus aureus, MSSA, MSSA (n-28), read-out: MIC90) of 0.6 µM (≈ 0.972 µg/mL) and an MIC90 (Staphylococcus aureus; Staphylococcus aureus, VISA, VISA (n = 10), read-out: MIC90) of 4.9 µM (≈ 7.94 µg/mL). For the same molecule, the MIC90 (Staphylococcus aureus; Staphylococcus aureus, VRSA, VRSA (n = 14), read-out: MIC90) was 0.6 µM (≈ 0.972 µg/mL), the MIC90 (Staphylococcus aureus; VISA (n = 10)) was 8 and the MIC90 (Staphylococcus aureus; VRSA (n = 14)) was 1. It also gave an MIC ([1]; 504 h, read-out: MIC in daptomycin resistant clones) of 18 µg/mL (≈ 11.1 µM), an MIC ([1]; read-out: MIC before daptomycin resistance selection) of 1 µg/mL (≈ 0.617 µM) and a Fold reduction (MRSA S. aureus strains; MRSA strain 223) of 128. It also gave an MIC combo (MRSA S. aureus strains; MRSA strain 223) of 0.0075 µg/mL, a Fold reduction (MRSA S. aureus strains; MRSA strain 241) of 256 and an MIC combo (MRSA S. aureus strains; MRSA strain 241) of 0.0037 µg/mL. The Fold reduction (MRSA S. aureus strains; MRSA strain 263) was 128, the MIC combo (MRSA S. aureus strains; MRSA strain 263) was 0.0075 µg/mL and the Fold reduction (MRSA S. aureus strains; MRSA strain 269 (MW2)) was 64. For the same molecule, the MIC combo (MRSA S. aureus strains; MRSA strain 269 (MW2)) was 0.015 µg/mL, the Fold reduction (MRSA S. aureus strains; MRSA strain 270) was 64 and the MIC combo (MRSA S. aureus strains; MRSA strain 270) was 0.015 µg/mL. It also gave a Fold reduction (MRSA S. aureus strains; MRSA strain 553) of 128, an MIC combo (MRSA S. aureus strains; MRSA strain 553) of 0.0075 µg/mL and a Fold reduction (MRSA S. aureus strains; MRSA strain 650) of 64. The MIC combo (MRSA S. aureus strains; MRSA strain 650) was 0.015 µg/mL, the Fold reduction (MRSA S. aureus strains; MRSA strain 827) was 128 and the MIC combo (MRSA S. aureus strains; MRSA strain 827) was 0.0075 µg/mL. The Fold reduction (MRSA S. aureus strains; MRSA strain 828) was 128, the MIC combo (MRSA S. aureus strains; MRSA strain 828) was 0.0075 µg/mL and the Fold reduction (MRSA S. aureus strains; MRSA strain 829) was 128. The MIC combo (MRSA S. aureus strains; MRSA strain 829) was 0.0075 µg/mL, the Fold reduction (MRSA S. aureus strains; MRSA strain 830) was 64 and the MIC combo (MRSA S. aureus strains; MRSA strain 830) was 0.015 µg/mL. The Fold reduction (MRSA S. aureus strains; MRSA strain 833) was 128, the MIC combo (MRSA S. aureus strains; MRSA strain 833) was 0.0075 µg/mL and the “fold reduction in the effective MIC” value (MRSA S. aureus strains; PlySs2 and daptomycin together, a dozen MRSA strains) was 16-256 fold. For the same molecule, the MIC (MRSA S. aureus strains; MRSA strain 223, single-agent, read-out: MIC alone) was 1 µg/mL (≈ 0.617 µM), the MIC (MRSA S. aureus strains; MRSA strain 241, single-agent, read-out: MIC alone) was 1 µg/mL (≈ 0.617 µM) and the MIC (MRSA S. aureus strains; MRSA strain 263, single-agent, read-out: MIC alone) was 1 µg/mL (≈ 0.617 µM). It also gave an MIC (MRSA S. aureus strains; MRSA strain 269 (MW2), single-agent, read-out: MIC alone) of 1 µg/mL (≈ 0.617 µM), an MIC (MRSA S. aureus strains; MRSA strain 270, single-agent, read-out: MIC alone) of 1 µg/mL (≈ 0.617 µM) and an MIC (MRSA S. aureus strains; MRSA strain 553, single-agent, read-out: MIC alone) of 1 µg/mL (≈ 0.617 µM). It also gave an MIC (MRSA S. aureus strains; MRSA strain 650, single-agent, read-out: MIC alone) of 1 µg/mL (≈ 0.617 µM), an MIC (MRSA S. aureus strains; MRSA strain 827, single-agent, read-out: MIC alone) of 1 µg/mL (≈ 0.617 µM) and an MIC (MRSA S. aureus strains; MRSA strain 828, single-agent, read-out: MIC alone) of 1 µg/mL (≈ 0.617 µM). The MIC (MRSA S. aureus strains; MRSA strain 829, single-agent, read-out: MIC alone) was 1 µg/mL (≈ 0.617 µM), the MIC (MRSA S. aureus strains; MRSA strain 830, single-agent, read-out: MIC alone) was 1 µg/mL (≈ 0.617 µM) and the MIC (MRSA S. aureus strains; MRSA strain 833, single-agent, read-out: MIC alone) was 1 µg/mL (≈ 0.617 µM). For the same molecule, the MIC (MRSA S. aureus strains; daptomycin as single agent, read-out: MIC) was 1 µg/mL (≈ 0.617 µM), the MIC (MRSA S. aureus strains; daptomycin with 0.25× MIC PlySs2, read-out: MIC) was 0.0075 µg/mL (≈ 0.00463 µM) and the “decrease of MIC” value (MRSA S. aureus strains; daptomycin with 0.25× MIC PlySs2) was 128 fold. The “degree of potency enhancement” value (MRSA S. aureus strains; daptomycin with PlySs2, across 12 MRSA strains) was 64 to 256 fold, the MIC ([2]; read-out: daptomycin MIC, ending values, passaged with PlySs2 (4 ug/ml) plus daptomycin, 30-day study) was 4 µg/mL and the MIC ([2]; read-out: daptomycin MIC, ending values, three daptomycin-only cultures, 30-day study) was 128 µg/mL (≈ 79 µM). The “antibiotic MIC, starting value” ([2]; before serial passage) was 1 µg/mL, the “increase of daptomycin MIC” value ([2]; daptomycin-only cultures, 30-day study) was 64 to 128 fold and the “increase of daptomycin MIC” value ([2]; passaged with PlySs2 (4 ug/ml) plus daptomycin) was 4 fold. For the same molecule, the “daptomycin MIC, ending values” ([2]; three daptomycin-only cultures, 30-day study) was 64 µg/mL, the “effective concentration in combination as fraction of MIC” value (MRSA strain 269 (MW2)) was 1/1024 and the “most dilute concentration in combination that still inhibits growth” value (MRSA strain 269 (MW2)) was 0.25 µg/mL. The “24 hour survival rate” value (S. aureus [3]; [7]) was 47%, the “72 hour survival rate” value (S. aureus [3]; [7]) was 31% and the “survival at 72 hours” value (S. aureus [3]; low challenge model (up to 7×10^6 CFU MRSA MW2), single dose at 4 hours, PlySs2 1.25 mg/kg, daptomycin 2 mg/kg) was 23%. For the same molecule, the “inhibition of MIC by surfactant” value ([4]; Survanta, up to 15%) was “up to 256 fold”, the “inhibition of MIC by surfactant” value ([4]; surfactant concentration of 1.25%) was “more than 20 fold” and the “time to antibiotic penetration (BODIPY-labeled daptomycin binding)” value (S. aureus [5]; in the presence of CF-301 at 1/32nd MIC) was 15 min. For the same molecule, the “time to antibiotic penetration (BODIPY-labeled daptomycin binding)” value (S. aureus [5]; without CF-301) was 180 min and the “time to reach bactericidal levels (≥3-log10 reduction in CFUs)” value ([6]; 1×MIC, 20 MSSA and 42 MRSA strains) was 6 hours.
In the case of `CC(=O)NC[C@H]1CN(c2ccc(N3CCOCC3)c(F)c2)C(=O)O1` [Linezolid], the MIC50/90 (Staphylococcus aureus; DRSA (n = 8)) is reported as 2, the “MIC50/90 [uM]” value (Staphylococcus aureus; DRSA (n = 8)) is reported as 5.7 µM (≈ 1.92 µg/mL) and the MIC50/90 (Staphylococcus aureus; LRSA (n = 5)) is reported as over 64. For the same molecule, the “MIC50/90 [uM]” value (Staphylococcus aureus; LRSA (n = 5)) was over 183 µM, the MIC50/90 (Staphylococcus aureus; MRSA (n = 45)) was 2 and the “MIC50/90 [uM]” value (Staphylococcus aureus; MRSA (n = 45)) was 5.7 µM (≈ 1.92 µg/mL). The MIC50/90 (Staphylococcus aureus; MSSA (n-28)) was 2, the “MIC50/90 [uM]” value (Staphylococcus aureus; MSSA (n-28)) was 5.7 µM (≈ 1.92 µg/mL) and the MIC50/90 (Staphylococcus aureus; VISA (n = 10)) was 2. The “MIC50/90 [uM]” value (Staphylococcus aureus; VISA (n = 10)) was 5.7 µM (≈ 1.92 µg/mL), the MIC50/90 (Staphylococcus aureus; VRSA (n = 14)) was 2 and the “MIC50/90 [uM]” value (Staphylococcus aureus; VRSA (n = 14)) was 5.7 µM (≈ 1.92 µg/mL).
`Cc1onc(-c2ccccc2)c1C(=O)N[C@@H]1C(=O)N2[C@@H]1SC(C)(C)[C@@H]2C(=O)O` [Oxacillin, oxacillin] was tested, and the MIC50/90 (Staphylococcus aureus; MRSA (n = 45)) was >4*, the “MIC50/90 [uM]” value (Staphylococcus aureus; MRSA (n = 45)) was over 10.0 µM and the “kill within 6 hours” value ([6]; 1×MIC) was 2 log10. The “relative effectiveness among antibiotic agents” value ([6]; MSSA strains) was “least effective”.
